# In US4820694A, “Modifications of 3-O-demethylmycinose in macrocin and lactenocin” (priority 1986, dated 1989):
# Like-named read-outs stand apart in the source and are kept apart here.
# Columns and labels:
# Escherichia coli EC14 = assay: standard agar-dilution MIC assay; assay type: cell-based
# Procedure: (§1) The MIC's in Table III were determined by standard agar-dilution assays. The MIC's in Table IV were obtained using conventional brothdilution microtiter tests.
# [1] = test system: Haemophilus influenzae 76; assay: standard agar-dilution MIC assay; assay type: cell-based; settings: Haemophilus influenzae, 76
# Procedure: as §1
# [2] = test system: Haemophilus influenzae C.L.; assay: standard agar-dilution MIC assay; assay type: cell-based; settings: Haemophilus influenzae
# Procedure: as §1
# [3] = test system: Klebsiella pneumoniae X68; assay: standard agar-dilution MIC assay; assay type: cell-based; settings: Klebsiella pneumoniae, X68
# Procedure: as §1
# [4] = test system: Pseudomonas aeruginosa X239; assay: standard agar-dilution MIC assay; assay type: cell-based; settings: Pseudomonas aeruginosa, X239
# Procedure: as §1
# [5] = test system: Staphylococcus aureus V41; assay: standard agar-dilution MIC assay; assay type: cell-based; settings: Staphylococcus aureus, V41
# Procedure: as §1
# [6] = test system: Staphylococcus aureus X1.1; assay: standard agar-dilution MIC assay; assay type: cell-based; settings: Staphylococcus aureus, X1.1
# Procedure: as §1
# [7] = test system: Staphylococcus aureus X400; assay: standard agar-dilution MIC assay; assay type: cell-based; settings: Staphylococcus aureus, X400
# Procedure: as §1
# [8] = test system: Staphylococcus epidermidis EP12; assay: standard agar-dilution MIC assay; assay type: cell-based
# Procedure: as §1
# [9] = test system: Staphylococcus epidermidis EPI1; assay: standard agar-dilution MIC assay; assay type: cell-based; settings: Staphylococcus epidermidis, EPI1
# Procedure: as §1
# [10] = test system: Streptococcus Group D 9960; assay: standard agar-dilution MIC assay; assay type: cell-based; settings: GROUPD9960, read-out: MIC
# Procedure: as §1
# [11] = test system: Streptococcus Group D X66; assay: standard agar-dilution MIC assay; assay type: cell-based; settings: read-out: MIC
# Procedure: as §1
# [12] = test system: Streptococcus pyogenes C203; assay: standard agar-dilution MIC assay; assay type: cell-based; settings: Streptococcus pyogenes, C203
# Procedure: as §1
# [13] = test system: Staphylococcus aureus S13E; assay: microbe, parasite or virus in culture; assay type: cell-based; settings: Staphylococcus aureus, S13E
# Procedure: as §1
# [14] = test system: Streptococcus pneumoniae Park I; assay: microbe, parasite or virus in culture; assay type: cell-based; settings: Streptococcus pneumoniae
# Procedure: as §1
# [15] = test system: Bordetella bronchiseptica; assay: broth-dilution microtiter MIC test; assay type: cell-based; settings: Bordetella bronchiseptica
# Procedure: as §1
# [16] = test system: Mycoplasma gallisepticum 15E; assay: broth-dilution microtiter MIC test; assay type: cell-based; settings: Mycoplasmoides gallisepticum, 15E
# Procedure: as §1
# [17] = test system: Mycoplasma gallisepticum 29C; assay: broth-dilution microtiter MIC test; assay type: cell-based; settings: Mycoplasmoides gallisepticum, 29C
# Procedure: as §1
# [18] = test system: Mycoplasma gallisepticum 36H; assay: broth-dilution microtiter MIC test; assay type: cell-based; settings: Mycoplasmoides gallisepticum, 36H
# Procedure: as §1
# Mycoplasma hyorhinis 29E = assay: broth-dilution microtiter MIC test; assay type: cell-based; settings: Mycoplasma, 29E
# Procedure: as §1
# Mycoplasma synoviae 40A = assay: broth-dilution microtiter MIC test; assay type: cell-based; settings: Mycoplasmopsis synoviae, 40A
# Procedure: as §1
# [19] = test system: Pasteurella hemolytica 22C; assay: broth-dilution microtiter MIC test; assay type: cell-based; settings: Pasteurella, 22C
# Procedure: as §1
# [20] = test system: Pasteurella hemolytica 23C; assay: broth-dilution microtiter MIC test; assay type: cell-based; settings: Pasteurella, 23C
# Procedure: as §1
# [21] = test system: Pasteurella hemolytica 41D; assay: broth-dilution microtiter MIC test; assay type: cell-based; settings: Pasteurella, 41D
# Procedure: as §1
# [22] = test system: Pasteurella multocida 17E; assay: broth-dilution microtiter MIC test; assay type: cell-based; settings: Pasteurella multocida, 17E
# Procedure: as §1
# [23] = test system: Pasteurella multocida 22A; assay: broth-dilution microtiter MIC test; assay type: cell-based; settings: Pasteurella multocida, 22A
# Procedure: as §1
# [24] = test system: Pasteurella multocida 40G; assay: broth-dilution microtiter MIC test; assay type: cell-based; settings: Pasteurella multocida, 40G
# Procedure: as §1
# [25] = test system: Pasteurella multocida 60A; assay: broth-dilution microtiter MIC test; assay type: cell-based; settings: Pasteurella multocida, 60A
# Procedure: as §1
# [26] = test system: Pasteurella multocida 68C; assay: broth-dilution microtiter MIC test; assay type: cell-based; settings: Pasteurella multocida, 68C
# Procedure: as §1
# [27] = test system: Staphylococcus aureus 19C; assay: broth-dilution microtiter MIC test; assay type: cell-based; settings: Staphylococcus aureus, 19C
# Procedure: as §1
# Streptococcus sp. 19F = assay: broth-dilution microtiter MIC test; assay type: cell-based; settings: Streptococcus, SP.19F
# Procedure: as §1
# [28] = test system: Streptococcus pyogenes C203; assay: protection of mice experimentally infected with S. pyogenes C203; assay type: in vivo; settings: mice, mg/kg × 2, doses given 1 and 4 hours postinfection, read-out: ED50
# Procedure: The formula 1 compounds have shown in vivo antimicrobial activity against experimentally-induced infections in laboratory animals. When two doses of test compound were administered to mice experimentally infected with S. pyrogenes C203, the activity observed was measured as an ED50 value [effective dose in mg/kg to protect 50% of the test animals: see Warren Wick, et al., J. Bacteriol. 81, 233-235 (1961)].
# ^a mg/kg × 2; doses given 1 and 4 hours postinfection
# [29] = broth-dilution microtiter, read-out: MIC
# [30] = broth-dilution microtiter, Avian isolate, read-out: MIC
smiles,measurement,setting,value
"CCC1OC(=O)CC(O)C(C)C(OC2OC(C)C(OC3CC(C)(O)C(O)C(C)O3)C(N(C)C)C2OC(C)=O)C(CC=O)CC(C)C(=O)C=CC(C)=CC1COC1OC(C)C(OC(C)=O)C(OC(C)=O)C1OC (stereo not drawn) [Compound 3, 2',3'"",4'""-Tri-O-acetyl-macrocin]",MIC,"Escherichia coli EC14; agar-dilution, read-out: MIC",> 128 µg/mL
same,MIC,"[1]; agar-dilution, Ampicillin-resistant strain, read-out: MIC",2 µg/mL
same,MIC,"[2]; agar-dilution, Ampicillin-sensitive strain, read-out: MIC",> 128 µg/mL
same,MIC,"[3]; agar-dilution, read-out: MIC",> 128 µg/mL
same,MIC,"[4]; agar-dilution, read-out: MIC",> 128 µg/mL
same,MIC,"[5]; agar-dilution, Penicillin-resistant strain, read-out: MIC",2 µg/mL
same,MIC,"[6]; agar-dilution, read-out: MIC",2 µg/mL
same,MIC,[7],4 µg/mL
same,MIC,"[8]; agar-dilution, read-out: MIC",2 µg/mL
same,MIC,"[9]; agar-dilution, read-out: MIC",2 µg/mL
same,MIC,[10],4 µg/mL
same,MIC,[11],8 µg/mL
same,MIC,"[12]; agar-dilution, read-out: MIC",1 µg/mL
same,MIC,[13],4 µg/mL
same,MIC,"[14]; agar-dilution, read-out: MIC",1 µg/mL
same,MIC,[15]; [29],> 50 µg/mL
same,MIC,[16]; [29],> 50 µg/mL
same,MIC,[17],3.12 µg/mL
same,MIC,[18]; [29],> 50 µg/mL
same,MIC,Mycoplasma hyorhinis 29E,25 µg/mL
same,MIC,Mycoplasma synoviae 40A; [29],12.5 µg/mL
same,MIC,[19]; [29],> 50 µg/mL
same,MIC,[20]; [29],> 50 µg/mL
same,MIC,[21]; [29],> 50 µg/mL
same,MIC,"[22]; broth-dilution microtiter, Bovine isolate, read-out: MIC",> 50 µg/mL
same,MIC,[23]; [29],> 50 µg/mL
same,MIC,[24]; [29],> 50 µg/mL
same,MIC,[25]; [30],> 50 µg/mL
same,MIC,[26]; [29],> 50 µg/mL
same,MIC,[27]; [29],6.25 µg/mL
same,MIC,Streptococcus sp. 19F,3.12 µg/mL
"CCC1OC(=O)CC(O)C(C)C(OC2OC(C)C(OC3CC(C)(O)C(O)C(C)O3)C(N(C)C)C2OC(C)=O)C(CC=O)CC(C)C(=O)C=CC(C)=CC1COC1OC(C)C(OC(=O)Cc2ccccc2)C(OC(=O)Cc2ccccc2)C1OC (stereo not drawn) [Compound 11, 2'-O-Acetyl-3'"",4'""-di-O-phenylacetylmacrocin]",MIC,Escherichia coli EC14,> 128 µg/mL
same,MIC,[1],> 128 µg/mL
same,MIC,[2],> 128 µg/mL
same,MIC,[3],> 128 µg/mL
same,MIC,[4],> 128 µg/mL
same,MIC,[5],16 µg/mL
same,MIC,[6],16 µg/mL
same,MIC,[7],64 µg/mL
same,MIC,[8],32 µg/mL
same,MIC,[9],32 µg/mL
same,MIC,[10],16 µg/mL
same,MIC,[11],32 µg/mL
same,MIC,[12],4 µg/mL
same,MIC,[13],32 µg/mL
same,MIC,[14],1 µg/mL
same,MIC,[15],> 50 µg/mL
same,MIC,[16],25 µg/mL
same,MIC,[17],3.12 µg/mL
same,MIC,[18],50 µg/mL
same,MIC,Mycoplasma hyorhinis 29E,12.5 µg/mL
same,MIC,Mycoplasma synoviae 40A,12.5 µg/mL
same,MIC,[19],> 50 µg/mL
same,MIC,[20],> 50 µg/mL
same,MIC,[21],> 50 µg/mL
same,MIC,[22],> 50 µg/mL
same,MIC,[23],> 50 µg/mL
same,MIC,[24],> 50 µg/mL
same,MIC,[25],> 50 µg/mL
same,MIC,[26],> 50 µg/mL
same,MIC,[27],50 µg/mL
same,MIC,Streptococcus sp. 19F,3.12 µg/mL
"CCC1OC(=O)CC(O)C(C)C(OC2OC(C)C(OC3CC(C)(O)C(O)C(C)O3)C(N(C)C)C2OC(C)=O)C(CC=O)CC(C)C(=O)C=CC(C)=CC1COC1OC(C)C(OC(=O)COc2ccccc2)C(O)C1OC (stereo not drawn) [Compound 13, 2'-O-Acetyl-4'""-O-phenoxyacetyl-macrocin]",MIC,"Escherichia coli EC14; agar-dilution, read-out: MIC",> 128 µg/mL
same,MIC,"[3]; agar-dilution, read-out: MIC",> 128 µg/mL
same,MIC,"[4]; agar-dilution, read-out: MIC",> 128 µg/mL
same,MIC,[5],1 µg/mL
same,MIC,[6],1 µg/mL
same,MIC,[7],2 µg/mL
same,MIC,[8],2 µg/mL
same,MIC,[9],1 µg/mL
same,MIC,[10],1 µg/mL
same,MIC,[11],1 µg/mL
same,MIC,[12],1 µg/mL
same,MIC,[13],2 µg/mL
same,MIC,[14],0.25 µg/mL
same,MIC,[15]; [29],> 50 µg/mL
same,MIC,[16],12.5 µg/mL
same,MIC,[17],0.39 µg/mL
same,MIC,[18],12.5 µg/mL
same,MIC,Mycoplasma hyorhinis 29E,3.12 µg/mL
same,MIC,Mycoplasma synoviae 40A,0.39 µg/mL
same,MIC,[19]; [29],> 50 µg/mL
same,MIC,[20]; [29],> 50 µg/mL
same,MIC,[21]; [29],> 50 µg/mL
same,MIC,[22],50 µg/mL
same,MIC,[23]; [29],> 50 µg/mL
same,MIC,[24]; [29],> 50 µg/mL
same,MIC,[25]; [30],> 50 µg/mL
same,MIC,[26],50 µg/mL
same,MIC,[27],3.12 µg/mL
same,MIC,Streptococcus sp. 19F,1.56 µg/mL
same,ED50,"[28]; C203, Oral",> 100 mg/kg
same,ED50,"[28]; C203, sc, Subcutaneous",7.2 mg/kg
